Experimental data as given in patent US9416144B2, “Benzoxazine oxazolidinone compound, preparation method and application thereof” (priority 2012, dated 2016).
≈ marks a conversion by molar mass, not a printed value.

How the values were obtained:
Assay in all cases: In vitro antibacterial activity, MIC by agar double dilution method
Assay type in all cases: cell-based
[1] = tested on: Streptococcus pneumoniae resistant strains (4 strains); conditions: clinical isolates
Text: (§1) Experimental method: The agar double dilution method (Antimicrob. Agents and Chemother, 40, 1996, 720-726) was used to determine the minimum inhibitory concentration (MIC) of the series of compounds of the invention and the positive control drug linezolid for the test strains. The multipoint inoculation system (Denley A400) was employed to inoculate the bacteria on the agar plate surface with different concentrations of drugs; inoculation amount on each point was about 10^6 CFU/mL. The plates were incubated at 35° C. for 16 hrs before the results were observed. The lowest drug concentration contained in the Petri dish without bacterial growth was used as the minimum inhibitory concentration (MIC value) of the drug fir that strain.
(§2) Test strains: All the test strains were clinically isolated pathogens which were collected from the Nanjing region, and they were re-identified by routine methods before use. 31 strains of the clinically isolated pathogens were chosen, including 6 strains of Enterococcus, 5 Staphylococcus aureus sensitive strains; 5 Staphylococcus epidermidis sensitive strains; 6 Staphylococcus aureus resistant strains; 5 Staphylococcus epidermidis resistant strains; and 4 Streptococcus pneumoniae resistant strains.
(§3) Compounds to be tested were first added 2 ml of DMSO to help them fully dissolved, then added sterile double distilled water to the desired concentration; to all the Petri dish with added drug liquid were added 20 mL MIT medium which was heat-melted to be liquid-like, to make the final drug concentration in the Petri dish to be 64, 32, 16, 8, 4, 2, 1, 0.5, 0.25, 0.125, 0.0625, and 0.031 μg/mL.
(§4) The positive control group was LZ (linezolid, brand name Zyvox, approved by the FDA in 2000 to be firstly sold in the United States, which is the first and also the only one of oxazolidinone antibacterial drugs allowed to enter clinical application).

[2] = tested on: Staphylococcus epidermidis resistant strains (5 strains); conditions: clinical isolates
Text: as §1, §2, §3, §4

[3] = tested on: Staphylococcus aureus resistant strains (6 strains); conditions: clinical isolates
Text: as §1, §2, §3, §4

Enterococcus (6 strains) = conditions: clinical isolates, 35° C. 16 hrs
Text: as §1, §2, §3, §4

[4] = tested on: Staphylococcus epidermidis sensitive strains (5 strains); conditions: clinical isolates
Text: as §1, §2, §3, §4

[5] = tested on: Staphylococcus aureus sensitive strains (5 strains); conditions: clinical isolates
Text: as §1, §2, §3, §4

| Compound | MIC [1] | MIC [2] | MIC [3] | MIC (Enterococcus (6 strains)) | MIC [4] | MIC [5] |
| --- | --- | --- | --- | --- | --- | --- |
| O=C1O[C@@H](CO)[C@@H]2COc3cc(-c4ccc(C(O)C5CC5)nc4)ccc3N12 (stereo partly drawn) [Compound 6, (3R,3aS)-7-(6-(cyclopropyl(hydroxyl)methyl)pyridin-3-yl)-3-(hydroxyl-methyl)-3a,4-dihydrobenzo[b]oxazolo[3,4-d][1,4]oxazin-1(3H)-one] | 1 to 2 µg/mL (≈ 2.71 to 5.43 µM) | 1 µg/mL (≈ 2.71 µM) | 1 to 2 µg/mL (≈ 2.71 to 5.43 µM) | 2 µg/mL (≈ 5.43 µM) | 0.5 to 1 µg/mL (≈ 1.36 to 2.71 µM) | 1 µg/mL (≈ 2.71 µM) |
| CC(C)(O)c1ccc(-c2ccc3c(c2)OC[C@H]2[C@H](CO)OC(=O)N32)cn1 [Compound 7, (3R,3aS)-3-(hydroxylmethyl)-7-(6-(2-hydroxylpropyl-2-yl)pyridin-3-yl)-3a,4-dihydrobenzo[b]oxazolo[3,4-d][1,4]oxazin-1(3H)-one] | 2 to 4 µg/mL (≈ 5.61 to 11.2 µM) | 2 µg/mL (≈ 5.61 µM) | 1 to 4 µg/mL (≈ 2.81 to 11.2 µM) | 4 µg/mL (≈ 11.2 µM) | 1 to 4 µg/mL (≈ 2.81 to 11.2 µM) | 1 to 4 µg/mL (≈ 2.81 to 11.2 µM) |
| CC(O)c1ccc(-c2ccc3c(c2)OC[C@H]2[C@H](CO)OC(=O)N32)cn1 (stereo partly drawn) [Compound 8, (3R,3aS)-7-(6-(1-hydroxylethyl)pyridin-3-yl)-3-(hydroxylmethyl)-3a,4-dihydrobenzo[b]oxazolo[3,4-d][1,4]oxazin-1(3H)-one] | 2 to 4 µg/mL (≈ 5.84 to 11.7 µM) | 1 to 2 µg/mL (≈ 2.92 to 5.84 µM) | 1 to 2 µg/mL (≈ 2.92 to 5.84 µM) | 2 to 4 µg/mL (≈ 5.84 to 11.7 µM) | 1 µg/mL (≈ 2.92 µM) | 1 to 2 µg/mL (≈ 2.92 to 5.84 µM) |
| O=C1O[C@@H](CO)[C@@H]2COc3cc(-c4ccc(CO)nc4)ccc3N12 [Compound 9, (3R,3aS)-3-(hydroxylmethyl)-7-(6-(hydroxylmethyl)pyridin-3-yl)-3a,4-dihydrobenzo[b]oxazolo[3,4-d][1,4]oxazin-1(3H)-one] | 2 to 4 µg/mL (≈ 6.09 to 12.2 µM) | 0.5 to 1 µg/mL (≈ 1.52 to 3.05 µM) | 1 to 2 µg/mL (≈ 3.05 to 6.09 µM) | 4 µg/mL (≈ 12.2 µM) | 0.5 µg/mL (≈ 1.52 µM) | 1 to 2 µg/mL (≈ 3.05 to 6.09 µM) |
| O=C1O[C@@H](CO)[C@@H]2COc3cc(-c4ccc(C5(O)CCCC5)nc4)ccc3N12 [Compound 10, (3R,3aS)-7-(6-(1-hydroxylcyclopentyl)pyridin-3-yl)-3-(hydroxylmethyl)-3a,4-dihydrobenzo[b]oxazolo[3,4-d][1,4]oxazin-1(3H)-one] | 2 µg/mL (≈ 5.23 µM) | 1 to 2 µg/mL (≈ 2.61 to 5.23 µM) | 1 to 2 µg/mL (≈ 2.61 to 5.23 µM) | 2 to 4 µg/mL (≈ 5.23 to 10.5 µM) | 1 to 2 µg/mL (≈ 2.61 to 5.23 µM) | 2 µg/mL (≈ 5.23 µM) |
| CN1CCN(c2ccc(-c3ccc4c(c3)OC[C@H]3[C@H](CO)OC(=O)N43)cn2)CC1 [Compound 12, (3R,3aS)-3-(hydroxylmethyl)7-(6-(4-methylpiperazin-1-yl)pyridin-3-yl)-3a,4-dihydrobenzo[b]oxazolo[3,4-d][1,4]oxazin-1(3H)-one] | 4 µg/mL (≈ 10.1 µM) | 4 µg/mL (≈ 10.1 µM) | 4 to 8 µg/mL (≈ 10.1 to 20.2 µM) | 2 to 4 µg/mL (≈ 5.04 to 10.1 µM) | 2 to 4 µg/mL (≈ 5.04 to 10.1 µM) | 2 to 4 µg/mL (≈ 5.04 to 10.1 µM) |
| CC(C)N1CC(c2ccc(-c3ccc4c(c3)OC[C@H]3[C@H](CO)OC(=O)N43)cn2)OC1=O (stereo partly drawn) [Compound 15, (3R,3aS)-3-(hydroxylmethyl)-7-(6-(3-isopropyl-2-oxazolidin-5-yl)pyridin-3-yl)-3a,4-dihydrobenzo[b]oxazolo[3,4-d][1,4]oxazin-1(3H)-one] | 2 µg/mL (≈ 4.7 µM) | 2 to 4 µg/mL (≈ 4.7 to 9.4 µM) | 1 to 2 µg/mL (≈ 2.35 to 4.7 µM) | 1 to 2 µg/mL (≈ 2.35 to 4.7 µM) | 1 to 2 µg/mL (≈ 2.35 to 4.7 µM) | 1 to 2 µg/mL (≈ 2.35 to 4.7 µM) |
| O=C1OC(c2ccc(-c3ccc4c(c3)OC[C@H]3[C@H](CO)OC(=O)N43)cn2)CN1Cc1ccccc1 (stereo partly drawn) [Compound 16, (3R,3aS)-7-(6-(3-benzyl-2-oxazolidin-5-yl)pyridin-3-yl)-3-(hydroxylmethyl)-3a,4-dihydrobenzo[b]oxazolo[3,4-d][1,4]oxazin-1(3H)-one] | 2 µg/mL (≈ 4.22 µM) | 2 to 4 µg/mL (≈ 4.22 to 8.45 µM) | 1 to 2 µg/mL (≈ 2.11 to 4.22 µM) | 1 to 2 µg/mL (≈ 2.11 to 4.22 µM) | 1 to 2 µg/mL (≈ 2.11 to 4.22 µM) | 1 to 2 µg/mL (≈ 2.11 to 4.22 µM) |
| Cn1nnc(-c2ccc(-c3ccc4c(c3)OC[C@H]3[C@H](CO)OC(=O)N43)cn2)n1 [Compound 17, (3R,3aS)-3-(hydroxylmethyl)-7-(6-(2-methyl-2H-tetrazol-5-yl)pyridin-3-yl)-3a,4-dihydrobenzo[b]oxazolo[3,4-d][1,4]oxazin-1(3H)-one] | 1 to 2 µg/mL (≈ 2.63 to 5.26 µM) | 1 to 2 µg/mL (≈ 2.63 to 5.26 µM) | 1 to 2 µg/mL (≈ 2.63 to 5.26 µM) | 4 µg/mL (≈ 10.5 µM) | 1 to 2 µg/mL (≈ 2.63 to 5.26 µM) | 1 to 4 µg/mL (≈ 2.63 to 10.5 µM) |
| O=C1COCCN1c1ccc(-c2ccc3c(c2)OC[C@H]2[C@H](CO)OC(=O)N32)cn1 [Compound 19, (3R,3aS)-3-(hydroxylmethyl)-7-(6-(3-oxomorpholin)pyridin-3-yl)-3a,4-dihydrobenzo[b]oxazolo[3,4-d][1,4]oxazin-1(3H)-one] | 2 to 4 µg/mL (≈ 5.03 to 10.1 µM) | 2 to 4 µg/mL (≈ 5.03 to 10.1 µM) | 2 to 4 µg/mL (≈ 5.03 to 10.1 µM) | 2 to 4 µg/mL (≈ 5.03 to 10.1 µM) | 1 to 2 µg/mL (≈ 2.52 to 5.03 µM) | 2 to 4 µg/mL (≈ 5.03 to 10.1 µM) |
| CN1CCN(c2ccc(-c3ccc4c(c3)OC[C@H]3[C@H](CO)OC(=O)N43)cn2)C(=O)C1 [Compound 20, (3R,3aS)-3-(hydroxylmethyl)-7-(6-(4-methyl-2-oxopiperazin-1-yl)pyridin-3-yl)-3a,4-dihydrobenzo[b]oxazolo[3,4-d][1,4]oxazin-1(3H)-one] | 4 to 8 µg/mL (≈ 9.75 to 19.5 µM) | 2 to 4 µg/mL (≈ 4.87 to 9.75 µM) | 2 to 4 µg/mL (≈ 4.87 to 9.75 µM) | 16 to 32 µg/mL (≈ 39 to 78 µM) | 2 to 4 µg/mL (≈ 4.87 to 9.75 µM) | 2 to 4 µg/mL (≈ 4.87 to 9.75 µM) |
| O=C1OC(CO)CN1c1ccc(-c2ccc3c(c2)OC[C@H]2[C@H](CO)OC(=O)N32)cn1 (stereo partly drawn) [Compound 24, (3R,3aS)-3-(hydroxylmethyl)-7-(6-(5-(hydroxylmethyl)-2-oxooxazolidin-3-yl)pyridin-3-yl)-3a,4-dihydrobenzo[b]oxazolo[3,4-d][1,4]oxazin-1(3H)-one] | 1 µg/mL (≈ 2.42 µM) | 0.5 to 1 µg/mL (≈ 1.21 to 2.42 µM) | 0.5 to 1 µg/mL (≈ 1.21 to 2.42 µM) | 0.5 to 1 µg/mL (≈ 1.21 to 2.42 µM) | 0.25 to 0.5 µg/mL (≈ 0.605 to 1.21 µM) | 0.5 to 1 µg/mL (≈ 1.21 to 2.42 µM) |
| O=C1O[C@H](CO)CN1c1ccc(-c2ccc3c(c2)OC[C@H]2[C@H](CO)OC(=O)N32)cn1 [Compound 25, (3R,3S)-3-(hydroxylmethyl)-7-(6-((S)-5-(hydroxylmethyl)-2-oxooxazolidin-3-yl)pyridin-3-yl)-3a,4-dihydrobenzo[b]oxazolo[3,4-d][1,4]oxazin-1(3H)-one] | 1 µg/mL (≈ 2.42 µM) | 0.5 to 1 µg/mL (≈ 1.21 to 2.42 µM) | 0.5 to 1 µg/mL (≈ 1.21 to 2.42 µM) | 0.5 to 1 µg/mL (≈ 1.21 to 2.42 µM) | 0.5 to 1 µg/mL (≈ 1.21 to 2.42 µM) | 0.5 to 1 µg/mL (≈ 1.21 to 2.42 µM) |
| O=C1O[C@@H](CO)CN1c1ccc(-c2ccc3c(c2)OC[C@H]2[C@H](CO)OC(=O)N32)cn1 [Compound 26, (3R,3aS)-3-(hydroxylmethyl)-7-(6-((R)-5-(hydroxylmethyl)-2-oxo-oxazolidin-3-yl)pyridin-3-yl)-3a,4-dihydrobenzo[b]oxazolo[3,4-d][1,4]oxazin-1(3H)-one] | 1 µg/mL (≈ 2.42 µM) | 0.5 to 1 µg/mL (≈ 1.21 to 2.42 µM) | 0.5 to 1 µg/mL (≈ 1.21 to 2.42 µM) | 0.5 to 1 µg/mL (≈ 1.21 to 2.42 µM) | 0.5 to 1 µg/mL (≈ 1.21 to 2.42 µM) | 0.5 to 1 µg/mL (≈ 1.21 to 2.42 µM) |
| CN1C[C@@H](c2ccc(-c3ccc4c(c3)OC[C@H]3[C@H](CO)OC(=O)N43)cn2)OC1=O [Compound 27, (3R,3aS)-3-(hydroxylmethyl)-7-(6-((R)-3-methyl-2-oxazolidin-5-yl)pyridin-3-yl)-3a,4-dihydrobenzo[b]oxazolo[3,4-d][1,4]oxazin-1(3H)-one] | 0.25 to 0.5 µg/mL (≈ 0.629 to 1.26 µM) | 0.5 to 1 µg/mL (≈ 1.26 to 2.52 µM) | 1 µg/mL (≈ 2.52 µM) | 1 µg/mL (≈ 2.52 µM) | 1 µg/mL (≈ 2.52 µM) | 1 µg/mL (≈ 2.52 µM) |
| CN1C[C@H](c2ccc(-c3ccc4c(c3)OC[C@H]3[C@H](CO)OC(=O)N43)cn2)OC1=O [Compound 28, (3R,3aS)-3-(hydroxylmethyl)-7-(6-((S)-3-methyl-2-oxazolidin-5-yl)pyridin-3-yl)-3a,4-dihydrobenzo[b]oxazolo[3,4-d][1,4]oxazin-1(3H)-one] | 2 µg/mL (≈ 5.03 µM) | 1 to 2 µg/mL (≈ 2.52 to 5.03 µM) | 2 µg/mL (≈ 5.03 µM) | 2 µg/mL (≈ 5.03 µM) | 2 µg/mL (≈ 5.03 µM) | 2 µg/mL (≈ 5.03 µM) |
